Columns and labels:
NHDF cells [1] = assay: Cell number by Hoechst stain (cell proliferation); type: cell-based, human; conditions: up to 50 μM, 6 day period; cycloheximide 50 μg/mL
Procedure: (§1) Fibroblasts were treated with increasing concentrations of MBX-4992 and MBXC-4336 for up to 6 days and cell number was measured periodically using Hoechst stain to quantify cell proliferation (A and B). Cyclohexamide (CHX) and DMSO (−) were used as positive and negative controls for cytotoxicity respectively. Cell cytostaticity (C and D) was assessed using ATP-based CellTiter Glo luciferase assay following extended incubation with increasing concentrations of MBX-4992 and MBXC-4336 for 1 or 6 days. Relative light units (RLU) were measured following cell lysis and normalized to DMSO treated cells for each time point.
(§2) The CellTiter Glo Luminescent Assay (Promega Inc, Madison, WI) was performed according to the manufacturer's instruction. NHDF cells (10^4) were plated in a 96-well plate overnight and treated with MBX-4992 or MXC-4336 ([…]) in triplicate for up to 6 days. Cyclohexamide (50 μg/mL) was used as a control. CellTiter Glo substrate was added in a 1:1 ratio with media and CellTiter-Glo reagent followed by the analysis of luciferase activity (relative light units, RLU) using a BioTek Synergy H1 microplate reader. In parallel, an identical plate was labelled with Hoescht reagent (25 μg/mL) to quantify the cell number using a Celigo Cytometer.
(§3) Next, the cytostaticity and cytotoxicity of treatment with MBX-4992 and MBXC-4336 was analyzed. […]

NHDF cells [2] = assay: CellTiter Glo ATP luciferase assay; type: cell-based, human; conditions: 0-50 μM, 1 or 6 days; cycloheximide 50 μg/mL
Procedure: as §1, §2, §3

AD169^R CMV virus = assay: Plaque reduction (dissemination) assay, prophylactic treatment; type: cell-based, Human cytomegalovirus; conditions: 2.5 μM, 10 dpi
Procedure: FIG. 8A-H are fluorescence images (A & B) and graphs showing that NAPA compounds MBX-4992 and MBXC-4336 work in both prophylactic and therapeutic settings to inhibit HCMV infection. ARPE-19 cells (A to D) and NHDF cells (E and F) treated with increasing concentrations (0, 1, 5, 20, and 50 μM) of MBX-4992, MBXC-4336, or ganciclovir (2.5 μM) were infected with AD169^R (MOI 0.025) and analyzed for viral plaques of >5,000 μm^2 (C and E) and >10,000 μm^2 (D and F) based on GFP fluorescence. The representative images of plaques from AD169^R-infected ARPE-19 cells treated MBX-4992, MBXC-4336, ganciclovir are shown (A and B). MBX-4992, MBXC-4336 (G and H), and ganciclovir treatment at 48 hpi of AD169^R-infected ARPE-19 cells (MOI 0.025) were analyzed for virus plaques >5,000 μm^2 and >10,000 μm^2 at 10 dpi. The normalized plaque number was designated to be 100 based on plaques from DMSO treated cells. Statistical tests were performed using ordinary one-way ANOVA with multiple comparisons to DMSO treated cells as a control and a Dunnett's post-test; *, p<0.05; **, p<0.01; ***, p<0.001; ****, p<0.0001.
For the prophylactic treatment analysis, the plaque assay was performed on ARPE-19 and NHDF cells (4×10^4) in a 24-well plate. The cells were pretreated for 1 hour with either MBX-4992 or MBXC-4336 (1-50 μM), DMSO, or ganciclovir (2.5 μM) and followed by virus infection with AD169^R. Following a 2-hour incubation at 37° C., the inoculum was removed and cells were overlaid with 1% low melt sea agarose. Upon solidification of the agarose, MBX-4992, MBXC-4336, DMSO, or ganciclovir in media was added at the indicated concentration. The drugs were replaced every 3 days. The cells were examined using Brightfield and GFP fluorescence to quantify the number and size of virus plaques using a Celigo Cytometer at 10 dpi.
To address whether NAPA compounds can limit virus dissemination in epithelial cells, we analyzed the inhibitory properties of MBX-4992 and MBXC-4336 using a plaque reduction assay by designating a cluster of virus infected cells as a virus plaque (Parsons et al., Antivir. Res., 193:105124 (2021)) The results are shown in FIG. 8A-H.
To evaluate the prophylactic function of the NAPA compounds, ARPE-19 cells and NHDF cells treated with DMSO, MBX-4992, MBXC-4336 (0-50 μM), or ganciclovir (2.5 μM) were infected with AD169^R CMV virus and analyzed for virus plaques at 10 dpi based on GFP fluorescence (FIG. 8A-F). A cluster of virus infected cells was designated a viral plaque based on an average cluster area of 5,000 μm^2 or 10,000 μm^2 (FIG. 8A-B) using a Celigo cytometer.

TB40/E = assay: Plaque assay, MBX-4992 and ganciclovir alone and in combination; type: cell-based, Human cytomegalovirus; conditions: ARPE-19 and NHDF cells, 10 dpi; MBX-4992 1-20 μM, ganciclovir 2.5 μM
Procedure: At 10 day post-infection, representative whole well images of plaques >10,000 μm^2 (A and B) were quantified based on GFP fluorescence intensity and calculated relative to DMSO controls (C and D). Statistical tests were performed using ordinary one-way ANOVA with multiple comparisons to DMSO treated cells as a control and a Dunnett's post-test. *, p<0.05; **, p<0.01; ***, p<0.001; ****, p<0.0001.
At 10 days post-infection, representative whole well images of plaques >10,000 μm^2 (A and B) were quantified based on GFP fluorescence intensity and calculated relative to DMSO controls (C and D).

HCMV AD169 = assay: Herpes virus panel neutralization, HCMV AD169; type: cell-based, Human cytomegalovirus; conditions: Human betaherpesvirus 5; HCMV AD169; read-out: IC50
Procedure: (§4) To determine the specificity of MBX-4992, additional neutralization experiments were conducted using a panel of herpes viruses performed in the presence of MBX-4992. […] Collectively, the antiviral activity of MBX-4992 is equivalent to that of GCV indicating specific inhibition of CMV replication.

MCMV Smith = assay: Herpes virus panel neutralization, MCMV; type: cell-based, Murine cytomegalovirus; conditions: Murid betaherpesvirus 1; MCMV Smith; read-out: IC50
Procedure: as §4

AD169^R (IE1 expression) = assay: Western blot (immunoblot) of IE1 expression in AD169^R-infected cells; type: cell-based, Human cytomegalovirus; conditions: NHDF cells, 24 hpi; MBX-4992 1-10 μM, ganciclovir 5 μM, convallotoxin 0.01 μM
Procedure: The molecular weight markers and respective proteins are indicated.
FIGS. 12A and B are Western Blot assays showing that MBXC-4336 limits expression of IE1 in fibroblasts and epithelial cells. Total cell lysates from AD169^R-infected (MOI 0.2) NHDF (A) and ARPE-19 (B) cells pre-treated with DMSO, MBX-4336 (0, 1, 5, 10, or 20 μM), or heparin (50 μg/mL) collected at 48 hpi were subjected to Western blot analysis using a rabbit anti-IE-1 antibody (lanes 1-7) and an anti-GAPDH antibody (lanes 8-14) as a loading control. The molecular weight markers and respective proteins are indicated.
Total cell lysates from virus infected NHDF cells treated with compounds were created through SDS-lysis (10^4/100 uL of 1% SDS) of at least three rounds of heating at 95° C. for 3 min and vigorous agitation. The total cell lysates were resolved using an SDS-polyacrylamide gel (12.5%), transferred to a PVDF membrane using a semi-dry apparatus. The membrane was then incubated with 1% BSA/PBS for 1 hr at room temperature followed by incubation with anti-IE1 and anti-GAPDH. Finally, the respective secondary antibody conjugated with HRP was incubated with membrane followed by detection using ECL reagents (Millipore).
Next, inhibition of the expression of IE1 in AD169^R-infected cells treated with MBX-4992 was examined by immunoblot analysis (FIG. 4E). […] Collectively, these findings further indicate that MBX-4992 effectively prevents the expression of the immediate-early genes during a CMV infection.

HCMV GDGr K17 (GCV^R) = assay: Herpes virus panel neutralization, GCV-resistant HCMV; type: cell-based, Human cytomegalovirus; conditions: Human betaherpesvirus 5
Procedure: as §4

AD169^R [3] = assay: Cells pre-incubation / washout study; type: cell-based, Human cytomegalovirus; conditions: cells pre-treated; drugs not removed or added back to washed-out cells
Procedure: (C) NHDF cells were pre-incubated with DMSO, MBX-4992 or heparin prior to virus addition. After addition of AD169^R (MOI 0.2) for 30 min, media was either unchanged or replaced with media containing DMSO, MBX-4992, or heparin. Virus infection was quantified at 24 hpi by GFP fluorescence. Percent infection was normalized to untreated cells. Statistical tests were performed using ordinary one-way ANOVA with multiple comparisons to DMSO treated cells as a control and a Dunnett's post-test: *, p<0.05; ****, p<0.0001.
NHDF cells (10^4) plated overnight in a 96-well plate were pretreated with MBX-4992 (10 μM), heparin (50 μg/mL) or DMSO for 1 hour at 37° C. The plate was then placed at 4° C. for 5 minutes followed by the addition of AD169^R CMV virus for 30 minutes. 2/3rd of the samples were aspirated post binding. Half of those samples received DMSO media, regardless of the drug the cells were previously exposed to. The remaining wells received either MBX-4992 (10 μM) or Heparin (50 μg/mL) overnight. At 18 hpi, the cells were fixed with 4% paraformaldehyde, stained with a rabbit anti-IE1 antibody followed by an anti-rabbit Alexa 647, and analyzed using the Celigo cytometer. The DMSO condition that was not aspirated post binding was set as 100% infection.
We next examined whether pre-treating cells with MBX-4992 can limit virus infection. Cells were pre-treated with MBX-4992 or heparin for […] followed by the addition of AD169^R for 30 min at 4° C. The cells were either washed out or unchanged as indicated and replaced with media containing DMSO, MBX-4992, or heparin followed by incubation at 37° C. At 18 hpi, virus infection was evaluated using a Celigo cytometer.

AD169^R [4] = assay: Virus pre-incubation / washout study; type: cell-based, Human cytomegalovirus; conditions: virus pre-incubated, compound washed out; MBX-4992 10 μM, heparin 50 μg/ml
Procedure: (B) Based on the schematic, AD169^R (MOI 0.2) was pre-incubated with DMSO, MBX-4992, or heparin for one hour before being added to NHDF cells. Virus/compound mix was washed out after 30 minutes as indicated and either unchanged or replaced with media containing DMSO, MBX-4992, or heparin. Virus infection was quantified at 24 hpi GFP fluorescence. Percent infection was normalized to untreated cells.
NHDF cells (10^4) plated overnight in a 96-well plate were incubated at 4° C. for 30 minutes with AD169^R CMV virus pretreated with MBX-4992 (10 μM), Heparin (50 μg/mL) or DMSO for 1 hour at room temperature (in triplicate). For 2/3rd of the samples, media was aspirated and half of the wells received DMSO media, regardless of which drug the virus was exposed to, or MBX-4992 (10 μM), or Heparin (50 μg/mL) overnight. At 18 hpi, the cells were fixed with 4% paraformaldehyde, stained with a rabbit anti-IE1 antibody followed by an anti-rabbit Alexa 647, and analyzed using the Celigo cytometer. The DMSO condition that was not aspirated post binding was set as 100% infection.
To further characterize the mechanism of action, pre-incubation/washout studies were performed using AD169^R and MBX-4992. […] At 18 hpi, cells were immunostained with an anti-IE1 antibody as a readout for infection and quantified using a Celigo cytometer. […]

Molecule: C[C@@H]1C[C@@H]([C@H](O)CC2CC(=O)NC(=O)C2)C(=O)[C@@H](C)C1 [cycloheximide, reference compound]
- cell number (NHDF cells [1]): dramatic decrease in cell number and luciferase activity
- luciferase signal (ATP levels) (NHDF cells [2]): dramatic decrease in cell number and luciferase activity

Molecule: Nc1nc(O)c2ncn(COC(CO)CO)c2n1 [ganciclovir, reference compound]
- reduction of plaque number (AD169^R CMV virus): ~50%
- viral plaques >10,000 μm^2, single drug (TB40/E): decreased
- IC50 (HCMV AD169): 900 nM
- IC50 (MCMV Smith): 200 nM
- IE1 expression by immunoblot (AD169^R (IE1 expression)): did not impact infection
- IC50 (HCMV GDGr K17 (GCV^R)): 10400 nM

Molecule: heparin [reference compound]
- virus infection, drug not removed or added back (AD169^R [3]): significantly inhibited virus infection
- decrease of infection after washing out (AD169^R [4]): positive control for inhibition

Reference: US20250177392A1, “BROAD SPECTRUM INHIBITORS OF CYTOMEGALOVIRUS” (MICROBIOTIX, INC., priority 2022, published 2025)
